From US6613538B2, “Detection of HLA-G” (priority 1999, dated 2003)

Columns and labels:
Type in all cases: cell-based, human
[1] = test system: cytotrophoblast cells; assay: HLA-G mRNA by quantitative RT-PCR after progesterone treatment
Experimental: (§1) Methods. Purified cytotrophoblasts were prepared from first trimester placental tissue by standard techniques. JEG-3 choriocarcinoma cells were cultured in RPMI-1640 medium containing 10% FCS for three days. The cells were then treated with various doses of progesterone for 24 hours. Cell lysates and conditioned media were prepared for ELISA and total RNA was extracted for PCR. The ELISA was conducted according to the invention, using the 3C/G4 and 2C/C8 anti-HLA-G monoclonal antibodies. HLA-G protein, purified by immunoaffinity columns from first trimester placental tissue, was used as standard. The sensitivity of the ELISA was 20 ng/ml and assay variation was less than 10%. Quantitative RT-PCR was performed by using specific primers for HLA-G. Results were assessed for statistical significance using one-way analysis of variance.

[2] = test system: JEG-3 choriocarcinoma cells; assay: as above
Experimental: as §1

[3] = test system: cytotrophoblasts (placenta cell culture); assay: HLA-G protein by ELISA after progesterone treatment; conditions: progesterone 100 ng and 1000 ng/ml, 24 hours
Experimental: as §1

[4] = test system: JEG-3 choriocarcinoma cells; assay: as above; conditions: progesterone doses from 10 ng/ml, 24 hours
Experimental: as §1

CC(=O)[C@H]1CC[C@H]2[C@@H]3CCC4=CC(=O)CC[C@]4(C)[C@H]3CC[C@]12C [progesterone]
HLA-G mRNA levels in cytotrophoblast cells [1]: increase of HLA-G mRNA levels | HLA-G mRNA levels in JEG-3 cells ([2]; after progesterone treatment, RT-PCR): increase of HLA-G mRNA levels | HLA-G mRNA levels at 1000 ng/ml versus 10 and 100 ng/ml ([2]; progesterone 1000 ng/ml, cell type not specified in the sentence (JEG-3 and cytotrophoblast cells tested)): significantly higher HLA-G mRNA levels | HLA-G protein in placenta cell culture [3]: significantly increased | HLA-G concentration in JEG-3 cell lysate [4]: significant increase | HLA-G concentration in JEG-3 conditioned medium [4]: significant increase
